Reference: article PMC4492727 (Pharmacology Research & Perspectives, 2015)
In brackets after ≈: the same amount, converted by molar mass. Where two headings read alike, the source gives them in different places.

Experiments:
MDCK II (MDR1) cells [1] = format: in vitro ADME, canine (cells expressing human P-gp); conditions: 2.4 μmol/L telmisartan
P-gp = conditions: read-out: IC50 as inhibitor of P-gp; ref Weiss et al. [2010]; cited from earlier work
[2] = test system: P-gp activity of the murine cell line P388/dx; conditions: P388/dx cells; ref Weiss et al. [2010]; cited from earlier work
[3] = test system: MDCK II cells transfected with the human MDR1 gene; conditions: 5 μmol/L telmisartan, 30 min preincubation; ref Chang et al. ([2006]); cited from earlier work
[4] = cited from earlier work
MDCK II (MDR1) cells [5] = assay: Bidirectional transepithelial transport across MDCK II

In the case of `CCCc1nc2c(C)cc(-c3nc4ccccc4n3C)cc2n1Cc1ccc(-c2ccccc2C(=O)O)cc1` [telmisartan], the “effect on amount of [3H]-digoxin present in cells and filter” value (MDCK II (MDR1) cells [1]) is given as “no difference”, the “increase in concentration of verapamil in cells compared to untreated control” value (MDCK II (MDR1) cells [1]) is given as roughly 26% and the IC50 (P-gp) is given as 380 nM. The “P-gp inhibitory effect, calcein AM uptake” value [2] was “inhibited”, the “inhibition of the efflux transport of digoxin” value [3] was “able to inhibit” and the aqueous solubility ([4]; ref Park et al. [2013]) was 0.45 µM (≈ 0.232 µg/mL). The aqueous solubility ([4]; ref Tran et al. [2008]) was 0.17 µM (≈ 0.0875 µg/mL), the “effect on transepithelial efflux of [3H]-verapamil” value (MDCK II (MDR1) cells [5]; 2.4 μmol/L telmisartan) was “minor inhibition” and the “effect on transepithelial transport of [3H]-digoxin” value (MDCK II (MDR1) cells [5]; 2.4 μmol/L telmisartan) was “does not affect”. The “effect on verapamil transport in pilot experiments” value (MDCK II (MDR1) cells [5]; low concentrations of telmisartan, data not shown) was “no effects”.
